Data from US5232923A, “Catechol derivatives and pharmaceutical preparations containing same” (Mitsui Toatsu Chemicals, Incorporated, priority 1988, dated 1993).

How the values were obtained:
[1] = test system: production and secretion of NGF in mouse brain astroglial cells; experiment: Promoting activity for the production and secretion of NGF in mouse brain astroglial cells (ELISA of medium after 24 h); assay type: cell-based; conditions: Table 5, 0.4 mM; for fold induction at 400 µM: Mus musculus, 24 h, fold increase over control (1.00), read-out: NGF Astroglial Cell Increase Ratio; for NGF Astroglial Cell Concentration: 24 hours, control 31.8
Procedure: Promoting activity for the production and secretion of NGF in mouse brain astroglial cells
The experiment was performed by inducing astroglial cells from the mouse forebrain to a culture system according to the procedures of S. Furukawa et al. which is described in Biochem. Biophys. Res. Commun., 136, 57-63 (1986).
Forebrains of 8-days old mice were dissected out and cut into small pieces. The pieces were washed with calcium- and magnesium-free phosphate-bufferedsaline (hereinafter abbreviated as PBS), treated with 0.25% trypsin containing PBS at 37° C. for 30 minutes and triturated with a Pasteur pipet to give a suspension. Cells and cell clumps were recovered by centrifugation at 200 xg for 5 minutes. They were cultured in Dulbecco modified Eagle's medium (a product of Gibco Co. hereinafter abbreviated as DMEM) containing 10% fetal calf serum, 50 μ units/ml of penicillin, and 50 μg/ml of streptomycin, for 10 to 14 days with medium changes every 3 days. After completing confluency, the cells were dissociated by trypsin treatment and recultured in new culture flasks. This procedure was repeated further twice and more. The culture became a uniform cell cluster. The cell cluster for use in this invention can be stained not less than 97% in accordance with the PAP staining method (peroxidase/[…] staining method) using anti-human glial fibrillar acidic protein (GFAP) rabbit antiserum. The cells will hereinafter be referred to as astroglial cells.
Astroglial cells were innoculated in 24-well plates having a well surface area of 2.1 cm^2 (a product of Falcon Co.) at a cell density of about 3×10^4 cells/well and cultured for 3 days in DMEM medium supplemented with 10% of fetal calf serum. After completing confluency about ([…]), the medium was changed to DMEM medium (0.5 ml/well) supplemented with 0.5% of bovine serum albumin (fraction V) and cultured for 3 days. The culture was further continued with medium changes every 3 days. After cells were practically synchronized in the quiscent stage, the medium was changed to 0.5 ml of the same medium and containing a prescribed concentration of test sample as illustrated in the Tables. NGF in the medium after cultivating for 24 hours was determined by the ELISA as mentioned above. Data are expressed as fold increase in NGF content over that in the absence of the test sample. The lower detection limit of the ELISA is 0.25 pg/ml and the NGF content of control medium was normally 1-10 pg/0.5 ml/well. Data are presented as the mean of four determinations. The results are illustrated in Tables 1-5.

[2] = test system: production and secretion of NGF in mouse L-M cells; experiment: Promoting activity for the production and secretion of NGF in mouse L-M cells (ELISA of medium after 24 h); assay type: cell-based; conditions: Table 5, L-M cells, 0.4 mM; for fold induction at 400 µM: Mus musculus, 24 h, fold increase over control (1.00), read-out: NGF L-M Cell Increase Ratio; for NGF L-M Cell Concentration: 24 hours, control 0.87
Procedure: Promoting activity for the production and secretion of NGF in mouse L-M cells
The medium was cultured for 3 days at a temperature of 37° C. […] The sample of the derivative tested is contained in the medium at a prescribed concentration as illustrated in the Tables. […] Data are expressed as fold increase in NGF content of the medium over that cultivated in the absence of the derivative to be tested. […] Data are presented as the mean of four determinations. The results are illustrated in Tables 1-5.

## CCCCCNC(=O)CCc1ccc(O)c(O)c1 [Compound 86, N-n-Pentyl-3,4-dihydroxyphenylpropionamide]
[1]
  fold induction at 400 µM: 30.3
  NGF Astroglial Cell Concentration: 493.9 ng/well
[2]
  fold induction at 400 µM: 6.5
  NGF L-M Cell Concentration: 5.66 ng/well

## CCCCCCNC(=O)CCc1ccc(O)c(O)c1 [Compound 87, N-n-Hexyl-3,4-dihydroxyphenylpropionamide]
[1]
  fold induction at 400 µM: 12
  NGF Astroglial Cell Concentration: 195.6 ng/well
[2]
  fold induction at 400 µM: 5.8
  NGF L-M Cell Concentration: 5.05 ng/well

## CCCCCCNC(=O)CCc1ccc(OC(C)=O)c(OC(C)=O)c1 [Compound 88, N-n-Hexyl-3,4-diacetoxyphenylpropionamide]
[1]
  fold induction at 400 µM: 15.8
  NGF Astroglial Cell Concentration: 257.5 ng/well
[2]
  fold induction at 400 µM: 6.2
  NGF L-M Cell Concentration: 5.39 ng/well

## CCCCCCCCCCCCNC(=O)CCc1ccc(O)c(O)c1 [Compound 89, N-Lauryl-3,4-dihydroxyphenylpropionamide]
[1]
  fold induction at 400 µM: 5
  NGF Astroglial Cell Concentration: 81.5 ng/well
[2]
  fold induction at 400 µM: 4.3
  NGF L-M Cell Concentration: 3.74 ng/well

## CCCCN(C)C(=O)CCc1ccc(O)c(O)c1 [Compound 90, N-n-Butyl-N-methyl-3,4-dihydroxyphenylpropionamide]
[1]
  fold induction at 400 µM: 30
  NGF Astroglial Cell Concentration: 489.0 ng/well
[2]
  fold induction at 400 µM: 6.4
  NGF L-M Cell Concentration: 5.57 ng/well

## CCCCCCCCCCCCCCCCCCNC(=O)CCc1ccc(O)c(O)c1 [Compound 91, N-Stearyl-3,4-dihydroxyphenylpropionamide]
[1]
  fold induction at 400 µM: 5.2
  NGF Astroglial Cell Concentration: 84.8 ng/well
[2]
  fold induction at 400 µM: 4.1
  NGF L-M Cell Concentration: 3.57 ng/well

## CCCCCCN(CCCCCC)C(=O)CCc1ccc(O)c(O)c1 [Compound 92, N,N-Di-n-hexyl-3,4-dihydroxyphenylpropionamide]
[1]
  fold induction at 400 µM: 8.8
  NGF Astroglial Cell Concentration: 143.4 ng/well
[2]
  fold induction at 400 µM: 5
  NGF L-M Cell Concentration: 4.35 ng/well

## O=C(CCc1ccc(O)c(O)c1)NC1CCCCC1 [Compound 93, N-Cyclohexyl-3,4-dihydroxyphenylpropionamide]
[1]
  fold induction at 400 µM: 9.9
  NGF Astroglial Cell Concentration: 161.4 ng/well
[2]
  fold induction at 400 µM: 6
  NGF L-M Cell Concentration: 5.22 ng/well

## CN(Cc1ccccc1)C(=O)CCc1ccc(O)c(O)c1 [Compound 94, N-Methyl N-benzyl-3,4-dihydroxyphenylpropionamide]
[1]
  fold induction at 400 µM: 5.2
  NGF Astroglial Cell Concentration: 84.8 ng/well
[2]
  fold induction at 400 µM: 5.1
  NGF L-M Cell Concentration: 4.44 ng/well

## O=C(CCc1ccc(O)c(O)c1)Nc1ccccc1 [Compound 95, N-Phenyl-3,4-dihydroxyphenylpropionamide]
[1]
  fold induction at 400 µM: 11.2
  NGF Astroglial Cell Concentration: 182.6 ng/well
[2]
  fold induction at 400 µM: 5.9
  NGF L-M Cell Concentration: 5.13 ng/well

## O=C(CCc1ccc(O)c(O)c1)NC12CC3CC(CC(C3)C1)C2 [Compound 96, N-Adamantyl-3,4-dihydroxyphenylpropionamide]
[1]
  fold induction at 400 µM: 18
  NGF Astroglial Cell Concentration: 293.4 ng/well
[2]
  fold induction at 400 µM: 5.7
  NGF L-M Cell Concentration: 4.96 ng/well

## O=C(CCc1ccc(O)c(O)c1)N1CCCCC1 [Compound 97, N-[3-(3,4-Dihydroxyphenyl)propionyl]piperidine]
[1]
  fold induction at 400 µM: 13.7
  NGF Astroglial Cell Concentration: 435.7 ng/well
[2]
  fold induction at 400 µM: 6.2
  NGF L-M Cell Concentration: 5.39 ng/well

## O=C(CCc1ccc(O)c(O)c1)N1CCCC1 [Compound 98, N-[3-(3,4-Dihydroxyphenyl)propionyl]pyrrolidine]
[1]
  fold induction at 400 µM: 12.8
  NGF Astroglial Cell Concentration: 407.0 ng/well
[2]
  fold induction at 400 µM: 6.1
  NGF L-M Cell Concentration: 5.31 ng/well

## O=C(CCc1ccc(O)c(O)c1)N1CCOCC1 [Compound 99, N-[3-(3,4-Dihydroxyphenyl)propionyl]morpholine]
[1]
  fold induction at 400 µM: 5.2
  NGF Astroglial Cell Concentration: 165.4 ng/well
[2]
  fold induction at 400 µM: 4.8
  NGF L-M Cell Concentration: 4.18 ng/well

## CN1CCN(C(=O)CCc2ccc(O)c(O)c2)CC1 [Compound 100, N-Methyl-N'-[3-(3,4-dihydroxyphenyl)propionyl]piperazine]
[1]
  fold induction at 400 µM: 8.2
  NGF Astroglial Cell Concentration: 260.8 ng/well
[2]
  fold induction at 400 µM: 5
  NGF L-M Cell Concentration: 4.35 ng/well

## O=C(CCc1ccc(O)c(O)c1)N1CCN(Cc2ccccc2)CC1 [Compound 101, N-Benzyl-N'-[3-(3,4-dihydroxyphenyl)propionyl]piperazine]
[1]
  fold induction at 400 µM: 9.6
  NGF Astroglial Cell Concentration: 305.3 ng/well
[2]
  fold induction at 400 µM: 5.2
  NGF L-M Cell Concentration: 4.52 ng/well

## O=C(CCc1ccc(O)c(O)c1)N1CCN(C(c2ccccc2)c2ccccc2)CC1 [Compound 102, N-Diphenylmethyl-N'-[3-(3,4-dihydroxyphenyl)propionyl]piperazine]
[1]
  fold induction at 400 µM: 10.1
  NGF Astroglial Cell Concentration: 321.2 ng/well
[2]
  fold induction at 400 µM: 5.1
  NGF L-M Cell Concentration: 4.44 ng/well

## COC(=O)[C@@H]1CCCN1C(=O)CCc1ccc(O)c(O)c1 [Compound 103, N-[3-(3,4-dihydroxyphenyl)propionyl]-L-proline methyl ester]
[1]
  fold induction at 400 µM: 6.3
  NGF Astroglial Cell Concentration: 200.3 ng/well
[2]
  fold induction at 400 µM: 4.3
  NGF L-M Cell Concentration: 3.74 ng/well

## CCOC(=O)C1CCCN(C(=O)CCc2ccc(O)c(O)c2)C1 (stereo not shown) [Compound 104, Ethyl N-[3-(3,4-dihydroxyphenyl)propionyl]nipecotinate]
[1]
  fold induction at 400 µM: 7.8
  NGF Astroglial Cell Concentration: 248.0 ng/well
[2]
  fold induction at 400 µM: 5.7
  NGF L-M Cell Concentration: 4.96 ng/well
